In patent publication US8703790B2, “Bis [O-(14-benzoylaconine-8-yl)] esters” (priority 2008, dated 2014):
pIC50: −log10 of the molar value.

Columns and labels:
MCF-7 = assay: Cell cycle arrest, propidium iodide flow cytometry, MCF-7; type: cell-based, human
Method: (§1) 10^6 Cells of A549, HCT-15 and MCF-7 cell lines have been seeded in Petri dishes with RPMI-1640 medium. 24 h later, SDD has been dissolved in water at a concentration of 20 μM and was directly added to the culture medium. Contact was maintained for 72 h. Then, cells have been detached by trypsinization, collected and rinsed by PBS and counted on hemocytometer. Cells were centrifuged for 5 min at 1500 rpm, then resuspended in a defined volume of PBS to obtain 2.5×10^6 cell/mL. 100 μL of cell suspension was digested to nuclei by trypsin for 10 min. Then, a solution containing trypsin inhibitor and RNAse was added to cell suspension and left for 10 min. Finally, cells were stained by propidium iodide and were analysed by flow-cytometry apparatus. Distribution of cells among the different phases of the cycle was determined by the procedure disclosed in: A detergent-trypsin method for preparation of nuclei for flow cytometric DNA analysis. Vindelov, L.; Christensen, I.; Nissen, N.; Cytometry (1983), 3, 323-327.
(§2) • G0G1: cell in the phase of GOG1 • G2M: cells in the phase of G2M • S: cells in the phase of DNA synthesis • Sub G1: apoptotic cells • SUP G2M: diploidic cells

A549 = assay: Cell cycle arrest, propidium iodide flow cytometry, A549; type: cell-based, human
Method: as §1, §2

HCT-15 = assay: Cell cycle arrest, propidium iodide flow cytometry, HCT-15; type: cell-based, human
Method: as §1, §2

HCT-15 (colon cancer) = assay: In vitro cytotoxicity test (MTT) against human tumour cell line HCT-15; type: cell-based; conditions: HCT-15, 24 h contact, 48 h re-growth
Method: (§3) Human tumour cell lines A549 (lung cancer), HCT-15 (colon cancer) and MCF-7 (breast cancer) have been obtained from the Developmental Therapeutics Program of the National Cancer Institute (Rockville, Md., USA). Cells were routinely grown with RPMI 1640 medium supplemented with 10% foetal calf serum, both obtained from Biochrom AG (Berlin, Germany). They were grown on Petri dishes (Nunc, Denmark) at 37° C. in a humidified atmosphere containing 5% CO2. Cells were replicated every 4 days and the medium changed once in-between.
(§4) Cytotoxicity has been evaluated on exponentially growing cells grown for 24 h in presence of the compounds to be tested. Briefly, 4000 cells were seeded in 96-well plates with 200 μL of complete medium; 24 hours later the medium was supplemented with a series of different concentrations of compounds and the contact maintained for 24 h. Compounds were dissolved in pure water and sterilised using polycarbonate membrane filters of 0.22 μm (Millipore, Molsheim, France). The cells were then allowed to re-grow for 48 hours; viable and metabolically active cells were quantitatively estimated by coloration with the MTT dye (1-(4,5-dimethylthyazol-2-yl)-3,5-diphenylformazan), Sigma-Aldrich Chimie, Saint-Quentin-Fallavier, France). The amount of substance allowing a 50% decrease in cell numbers is indicative of the cytotoxicity and represents the IC50 of compound.

female Swiss mouse = assay: Acute systemic toxicity, preliminary test, intravenous; type: in vivo; conditions: for death of the animal, time after the test item administration: 1 female Swiss mouse
Method: The study has been performed to assess the acute systemic toxicity of SDD in the mouse preliminary test.
The SDD was administered, by intravenous route: • in a first step to 1 female Swiss mouse at the single dose of 95 mg/kg b.w., • in a second step to 1 female Swiss mouse at the single dose of 60 mg/kg b.w., • in a third step to 1 female Swiss mouse at the single dose of 55 mg/kg b.w., and • in a fourth step to a group of 2 female Swiss mice at the single dose of 50 mg/kg b.w.

female Swiss mice = assay: Acute systemic toxicity, main test, intravenous; type: in vivo, mouse
Method: The SDD was administered by intravenous route at the dose of 50 mg/kg body weight to a group of 5 female Swiss mice. The experimental protocol was established from the International standard NF EN ISO 10993-11 concerning biological evaluation of medical devices: “Tests for systemic toxicity”.

A549 (lung cancer) = assay: In vitro cytotoxicity test (MTT) against human tumour cell line A549; type: cell-based; conditions: A549, 24 h contact, 48 h re-growth
Method: as §3, §4

[1] = MCF-7, SDD 20 μM, 72 h, percentage of total cell population
[2] = A549, SDD 20 μM, 72 h, percentage of total cell population
[3] = HCT-15, SDD 20 μM, 72 h, percentage of total cell population
[4] = 50 mg/kg b.w. iv, 1 hour after administration
[5] = 50 mg/kg iv, 1 hour after administration

CCN1C[C@]2(COC)[C@H](O)C[C@H](OC)[C@]34C1[C@H]([C@H](OC)[C@H]23)[C@]1(OC(=O)CCCCCCC(=O)O[C@]23[C@H]5[C@@H](OC(=O)c6ccccc6)[C@](O)(C[C@H]5[C@@]56C7[C@@H]2[C@H](OC)[C@@H]5[C@](COC)(CN7CC)[C@H](O)C[C@@H]6OC)[C@@H](OC)[C@@H]3O)[C@H]2[C@@H](OC(=O)c3ccccc3)[C@](O)(C[C@H]24)[C@@H](OC)[C@@H]1O [SDD, bis[O-(14-benzoylaconine-8-yl)]-suberate]
accumulation of cells in the G2M and S phases (MCF-7; MCF-7, 20 μM): moderate accumulation | ALL % (MCF-7; [1]): 100% | G0G1 % (MCF-7; [1]): 58.73% | G2M % (MCF-7; [1]): 16.96% | S % (MCF-7; [1]): 21.44% | SUP G2M % (diploidic cells) (MCF-7; [1]): 1.72% | SubG1 % (apoptotic cells) (MCF-7; [1]): 2.05% | cell distribution in the cycle (MCF-7; MCF-7, SDD concentration 5 times higher than IC50): not altered | Percentage of survival cells, G0G1 % (MCF-7; MCF-7, SDD, survival cells): 60.46% | Percentage of survival cells, G2M % (MCF-7; MCF-7, SDD, survival cells): 17.46% | Percentage of survival cells, S % (MCF-7; MCF-7, SDD, survival cells): 22.08% | accumulation of cells in the G2M and S phases (A549; A549, 20 μM): significant accumulation | increase of number of cells arrested at S phase as compared to control (A549; A549, SDD 20 μM): more than 100% | increase of number of cells in the G2M phase as compared to control (A549; A549, SDD 20 μM): 85% | ALL % (A549; [2]): 100% | G0G1 % (A549; [2]): 53.04% | G2M % (A549; [2]): 16.42% | S % (A549; [2]): 25.49% | SUP G2M % (diploidic cells) (A549; [2]): 2.09% | SubG1 % (apoptotic cells) (A549; [2]): 3.34% | cell distribution in the cell cycle (A549; A549, SDD concentration close to IC50): altered | Percentage of survival cells, G0G1 % (A549; A549, SDD, survival cells): 55.86% | Percentage of survival cells, G2M % (A549; A549, SDD, survival cells): 17.29% | Percentage of survival cells, S % (A549; A549, SDD, survival cells): 26.84% | accumulation of cells in the G2M and S phases (HCT-15; HCT-15, 20 μM): significant accumulation | numbers of apoptotic cells (Sub G1) (HCT-15; HCT-15, 20 μM): significantly increased | increase of number of cells arrested at S phase as compared to control (HCT-15; HCT-15, SDD 20 μM): more than 100% | increase of number of cells in the G2M phase as compared to control (HCT-15; HCT-15, SDD 20 μM): 75% | ALL % (HCT-15; [3]): 100% | G0G1 % (HCT-15; [3]): 30.67% | G2M % (HCT-15; [3]): 15.72% | S % (HCT-15; [3]): 26.35% | SUP G2M % (diploidic cells) (HCT-15; [3]): 2.59% | SubG1 % (apoptotic cells) (HCT-15; [3]): 23.65% | Percentage of survival cells, G0G1 % (HCT-15; HCT-15, SDD, survival cells): 42.16% | Percentage of survival cells, G2M % (HCT-15; HCT-15, SDD, survival cells): 21.61% | Percentage of survival cells, S % (HCT-15; HCT-15, SDD, survival cells): 36.23% | pIC50 (HCT-15 (colon cancer)): 5.43 | decrease of the righting reflex (animals affected) (female Swiss mouse; [4]): 1/2 | decrease of the spontaneous activity (animals affected) (female Swiss mouse; [4]): 2/2 | local finding at the tails (female Swiss mouse; 50 mg/kg b.w. iv, first day to fourteenth day): oedema at the level of the tails | mortality (female Swiss mouse; 50 mg/kg b.w. single dose iv, 2 female Swiss mice): No mortality | macroscopical examination (female Swiss mouse; 50 mg/kg iv, end of the study): did not reveal any treatment-related changes | death of the animal, time after the test item administration (female Swiss mouse; 55 mg/kg b.w. single dose iv): 24 h | death of the animal, time after the test item administration (female Swiss mouse; 60 mg/kg b.w. single dose iv): 3 h | death of the animal, time after the test item administration (female Swiss mouse; 95 mg/kg b.w. single dose iv): immediately | body weight evolution (female Swiss mouse; preliminary test, throughout the study): remained normal | mortality (female Swiss mice; 50 mg/kg body weight iv, 5 female Swiss mice): No mortality | decrease of the righting reflex (animals affected) (female Swiss mice; [5]): 2/5 | decrease of the spontaneous activity (animals affected) (female Swiss mice; [5]): 5/5 | eyes partly closed (animals affected) (female Swiss mice; [5]): 2/5 | macroscopical examination: necrosis at the level of the tail (animals affected) (female Swiss mice; 50 mg/kg iv, end of the study): 3/5 | local finding at the tails (female Swiss mice; 50 mg/kg iv, first day to fourteenth day): oedema at the level of the tails | body weight evolution (female Swiss mice; 50 mg/kg iv, throughout the study): remained normal | LD50 (female Swiss mice; mouse, intravenous route): above 50 mg/kg of body weight | pIC50 (A549 (lung cancer)): 4.73
